From patent US11661434B2, “Phosphate of platinum compound and preparation method therefor” (Beijing Showby Pharmaceutical Co., LTD., priority 2018, dated 2023)

How the values were obtained:
[1] = pH value of compound, salts and lyophilized preparations; format: physicochemical; settings: compound or its salts
Procedure: The solution was stirred for 10 min, and then stood for adsorption for 20 min, followed by filtering with a 0.22 μm microfiltration membrane, and then was placed into 2 ml vials. Each vial was filled with 1 ml of the solution, which was then lyophilized to obtain the product at the specification of 20 mg/vial. The product was a white loose block, with a pH value of 4.10.
(§1) 100) ml of water for injection was added at a low temperature (2-8° C.) to dissolve the compound, and 2.0 g of activated carbon for medicinal use was added. The solution was stirred for 10 min, and then stood for adsorption for 20 min, followed by filtering with a 0.22 μm microfiltration membrane, and then was placed into 2 ml vials. Each vial was filled with 1 ml of the solution, which was then lyophilized to obtain the product at the specification of 100 mg/vial.
as §1, with “100” for “100)”, “sodium dihydrogen phosphate-disodium hydrogen phosphate buffer (pH of 6.0)” for “water for injection”, “0.5” for “2.0”, “200” for “100”

[2] = hygroscopicity experiments of various salts; format: physicochemical; settings: 25° C. ± 1° C.
[3] = known platinum drugs; cited from earlier work
[4] = relative humidity 44% ± 2%, 1 h
[5] = relative humidity 44% ± 2%, 24 h
[6] = relative humidity 69% ± 2%, 1 h
[7] = relative humidity 69% ± 2%, 24 h

SMILES	pH value [1]	Hygroscopicity [2, 4] [%]	Status [2, 4]	Hygroscopicity [2, 5] [%]	Status [2, 5]	Hygroscopicity [2, 6] [%]	Status [2, 6]	Hygroscopicity [2, 7] [%]	Status [2, 7]	solubility [3] [mg/mL]
CCN(CC)CCCCC1C(=O)[O][Pt][O]C1=O.N[C@@H]1CCCC[C@H]1N [Example 1, (4-diethylamino)butylmalonato-(1R,2R)-(−)-1,2-cyclohexanediamine platinum(II)]	greater than 10									
CCN(CC)CCCCC1C(=O)[O][Pt]2([NH][C@@H]3CCCC[C@H]3[NH]2)[O]C1=O.Cc1ccc(S(=O)(=O)O)cc1 (stereo partly drawn) [Tosylate salt, 2-(4-diethylamino)butylmalonato-(1R,2R)-(−)-1,2-cyclohexanediamine platinum(II) tosylate]		4.56	Viscous	8.78	Light	5.30	Viscous	9.86	Light	
N.N.O=C([O-])C1(C(=O)[O-])CCC1.[Pt+2] [carboplatin]										17.8
CCN(CC)CCCCC1C(=O)[O][Pt]2([NH][C@@H]3CCCC[C@H]3[NH]2)[O]C1=O.O=C(O)[C@H](O)[C@@H](O)C(=O)O (stereo partly drawn) [L(+) tartrate salt, 2-(4-diethylamino)butylmalonato-(1R,2R)-(−)-1,2-cyclohexanediamine platinum(II) L-(+) tartrate]		4.88	Viscous	9.76	Light gray	5.78	Viscous	12.79	Light	
CCN(CC)CCCCC1C(=O)[O][Pt]2([NH][C@@H]3CCCC[C@H]3[NH]2)[O]C1=O.CS(=O)(=O)O (stereo partly drawn) [Mesylate salt, 2-(4-diethylamino)butylmalonato-(1R,2R)-(−)-1,2-cyclohexanediamine platinum(II) mesylate]		4.98	Viscous	9.89	Light gray	6.37	Viscous	13.89	Light gray	
CCN(CC)CCCCC1C(=O)[O][Pt]2([NH][C@@H]3CCCC[C@H]3[NH]2)[O]C1=O.O=C(O)/C=C/C(=O)O (stereo partly shown) [Fumarate salt]		5.87	Viscous	10.83	Semi-	6.83	Viscous	13.90	Semi-	
